The values below come from US20240166652A1, “MODULATORS OF THE INTEGRATED STRESS PATHWAY” (Calico Life Sciences LLC, priority 2017, published 2024).

The assay deals with ATF4 luciferase reporter in HEK293T cells. The experiment in a line: ATF4-Luc assay (ATF4 luciferase reporter, tunicamycin-treated HEK293T cells). It counts as cell-based, human. The following applies: Homo sapiens, HEK-293T; HEK293T cells carrying the ATF4 luciferase reporter, 1 μg/mL tunicamycin, 7 hours.

Regarding `O=C(COc1ccc(Cl)c(F)c1)NC12CC(NC(=O)Cc3ccncc3)(C1)C2` [Compound 459, 2-(4-chloro-3-fluorophenoxy)-N-{3-[2-(pyridin-4-yl)acetamido]bicyclo[1.1.1]pentan-1-yl}acetamide], the half-maximal effective concentration (EC50) was above 2000 nM. With `Cc1cccc(CCOCC(=O)NC23CC(NC(=O)COc4ccc(Cl)c(F)c4)(C2)C3)c1` [Compound 136, 2-(4-chloro-3-fluorophenoxy)-N-(3-{2-[2-(3-methylphenyl)ethoxy]acetamido}-bicyclo[1.1.1]pentan-1-yl)acetamide] the figure was 250 to 500 nM. With `Cc1cc(OCC(=O)NC23CCC(NC(=O)COc4ccc(Cl)c(F)c4)(CC2)C[C@@H]3O)cc(C)c1C` [Compound 503, 2-(4-chloro-3-fluorophenoxy)-N-{(3S)-3-hydroxy-4-[2-(3,4,5-trimethylphenoxy)acetamido]bicyclo[2.2.2]octan-1-yl]acetamide] the figure was 10 to 50 nM; with `CS(=O)(=O)c1ccc(OCC(=O)NC23CCC(NC(=O)COc4ccc(F)c(F)c4)(CC2)[C@@H](O)C3)cc1F` [Compound 768, 2-(3,4-difluorophenoxy)-N-[(2S)-4-{2-[3-fluoro-4-(methanesulfonyl)phenoxy]acetamido}-2-hydroxybicyclo[2.2.2]octan-1-yl]acetamide], 50 to 250 nM.

With `O=C(COc1ccc(Cl)c(Cl)c1)NC12CC(NC(=O)Cc3ccccn3)(C1)C2` [Compound 447, 2-(3,4-dichlorophenoxy)-N-{3-[2-(pyridin-2-yl)acetamido]bicyclo[1.1.1]pentan-1-yl}acetamide], the EC50 was above 2000 nM. Then `Cc1noc([C@H]2CC3(NC(=O)COc4ccc(Cl)c(F)c4)CCC2(NC(=O)COc2ccc(Cl)c(F)c2)CC3)n1` [Compound 420, N,N′-[(2S)-2-(3-methyl-1,2,4-oxadiazol-5-yl)bicyclo[2.2.2]octane-1,4-diyl]bis[2-(4-chloro-3-fluorophenoxy)acetamide]], with below 10 nM.

On to `O=C(CNC(=O)OCc1ccccc1)NC12CC(NC(=O)COc3ccc(Cl)c(F)c3)(C1)C2` [Compound 304, benzyl [2-({3-[2-(4-chloro-3-fluorophenoxy)acetamido]bicyclo[1.1.1]pentan-1-yl}amino)-2-oxoethyl]carbamate], for which the concentration for a half-maximal effect (EC50) lay within 500 to 2000 nM. With `O=C(COc1ccc(C(F)(F)F)c(F)c1)NC12CCC(NC(=O)COc3ccc(Cl)cc3)(CC1)[C@@H](O)C2` [Compound 843, 2-(4-chlorophenoxy)-N-[(2S)-4-{2-[3-fluoro-4-(trifluoromethyl)phenoxy]acetamido}-2-hydroxybicyclo[2.2.2]octan-1-yl]acetamide] the figure was below 10 nM. With `O=C(COc1ccc(Cl)cc1)NC12CCC(NC(=O)COc3ccc(F)c(F)c3)(CC1)CC2` [Compound 740, 2-(4-chlorophenoxy)-N-{4-[2-(3,4-difluorophenoxy)acetamido]bicyclo[2.2.2]octan-1-yl}acetamide] the figure was 10 to 50 nM. With `O=C(COc1ccc(Cl)cc1)NC12CCC(NC(=O)COc3ccc(F)c(F)c3)(CC1)[C@@H](O)C2` [Compound 618, 2-(4-chlorophenoxy)-N-{(3S)-4-[2-(3,4-difluorophenoxy)acetamido]-3-hydroxybicyclo[2.2.2]octan-1-yl}acetamide] the figure was below 10 nM; with `O=C(COc1ccc2c(c1)OC(F)(F)O2)NC12CCC(NC(=O)COc3ccc4c(c3)OC(F)(F)O4)(CC1)[C@@H](O)C2` [Compound 542, N,N′-[(2S)-2-hydroxybicyclo[2.2.2]octane-1,4-diyl]bis{2-[(2,2-difluoro-2H-1,3-benzodioxol-5-yl)oxy]acetamide}], below 10 nM; with `O=C(COc1ccc(F)cc1)NC12CCC(NC(=O)COc3ccc(F)c(F)c3)(CC1)[C@@H](O)C2` [Compound 617, 2-(3,4-difluorophenoxy)-N-{(2S)-4-[2-(4-fluorophenoxy)acetamido]-2-hydroxybicyclo[2.2.2]octan-1-yl}acetamide], below 10 nM. On to `O=C(COc1ccc(Cl)c(F)c1)NC12CCC(NC(=O)COc3ccnn(CC(F)(F)F)c3=O)(CC1)C(=O)C2` [Compound 316, 2-(4-chloro-3-fluorophenoxy)-N-[3-oxo-4-(2-{[3-oxo-2-(2,2,2-trifluoroethyl)-2,3-dihydropyridazin-4-yl]oxy}acetamido)bicyclo[2.2.2]octan-1-yl]acetamide], for which the concentration giving a half-maximal response (EC50) lay in the range of 500 to 2000 nM. Then `O=C(COc1ccc(Cl)c(F)c1)NC12CC(NC(=O)Cc3noc4ccccc34)(C1)C2` [Compound 360, 2-(1,2-benzoxazol-3-yl)-N-{3-[2-(4-chloro-3-fluorophenoxy)acetamido]bicyclo[1.1.1]pentan-1-yl}acetamide], with above 2000 nM; and `O=C(COc1ccc(Cl)c(F)c1)NC12CCC(NC(=O)COc3ccc(C(F)(F)F)c(F)c3)(CC1)[C@@H](O)C2` [Compound 832, 2-(4-chloro-3-fluorophenoxy)-N-[(3S)-4-{2-[3-fluoro-4-(trifluoromethyl)phenoxy]acetamido}-3-hydroxybicyclo[2.2.2]octan-1-yl]acetamide], with below 10 nM; and `CS(=O)(=O)OC1CC2(NC(=O)COc3ccc(Cl)c(F)c3)CCC1(NC(=O)COc1ccc(Cl)c(F)c1)CC2` (stereo not drawn) [Compound 344, 1,4-bis[2-(4-chloro-3-fluorophenoxy)acetamido]bicyclo[2.2.2]octan-2-yl methanesulfonate], with below 10 nM. For the molecule `CC(C)(C)c1ccc(OCC(=O)NC23CCC(NC(=O)COc4ccc(Cl)c(F)c4)(CC2)[C@@H](O)C3)cc1` [Compound 477, 2-(4-tert-butylphenoxy)-N-{(3S)-4-[2-(4-chloro-3-fluorophenoxy)acetamido]-3-hydroxybicyclo[2.2.2]octan-1-yl}acetamide], the 50% effective concentration (EC50) was above 2000 nM.

Regarding `O=C(COc1ccc(F)cc1)NC12CCC(NC(=O)COc3ccc(F)c(C(F)(F)F)c3)(CC1)[C@@H](O)C2` [Compound 831, 2-(4-fluorophenoxy)-N-[(3S)-4-{2-[4-fluoro-3-(trifluoromethyl)phenoxy]acetamido}-3-hydroxybicyclo[2.2.2]octan-1-yl]acetamide], the EC50 was below 10 nM. With `O=C(COc1ccc(Cl)c(F)c1)NC12CC(NC(=O)COc3cc(F)c(F)cc3F)(C1)C2` [Compound 414, 2-(4-chloro-3-fluorophenoxy)-N-{3-[2-(2,4,5-trifluorophenoxy)acetamido]bicyclo[1.1.1]pentan-1-yl}acetamide] the figure was below 10 nM; with `COc1ncc(OCC(=O)NC23CCC(NC(=O)COc4ccc5c(c4)OC(F)(F)O5)(CC2)[C@@H](O)C3)cn1` [Compound 632, 2-[(2,2-difluoro-2H-1,3-benzodioxol-5-yl)oxy]-N-[(2S)-2-hydroxy-4-{2-[(2-methoxypyrimidin-5-yl)oxy]acetamido}bicyclo[2.2.2]octan-1-yl]acetamide], 10 to 50 nM; with `O=C(COc1ccc(F)cc1)NC12CCC(NC(=O)COc3ccc(C(F)(F)F)c(F)c3)(CC1)[C@@H](O)C2` [Compound 835, 2-(4-fluorophenoxy)-N-[(3S)-4-{2-[3-fluoro-4-(trifluoromethyl)phenoxy]acetamido}-3-hydroxybicyclo[2.2.2]octan-1-yl]acetamide], below 10 nM. Regarding `O=C(COc1ccc(Cl)c(Cl)c1)NC12CC(NCCOc3ccc(Cl)cc3F)(C1)C2` [Compound 123, N-(3-{[2-(4-chloro-2-fluorophenoxy)ethyl]amino}bicyclo[1.1.1]pentan-1-yl)-2-(3,4-dichlorophenoxy)acetamide], the half-maximal effective concentration (EC50) was 10 to 50 nM. Then `O=C(COc1ccc(OC(F)F)cc1)NC12CC(NC(=O)COc3ccc(Cl)c(F)c3)(C1)C2` [Compound 397, 2-(4-chloro-3-fluorophenoxy)-N-(3-{2-[4-(difluoromethoxy)phenoxy]acetamido}bicyclo[1.1.1]pentan-1-yl)acetamide], with 10 to 50 nM; and `CS(=O)(=O)c1ccc(OCC(=O)NC23CCC(NC(=O)COc4ccc5c(c4)OC(F)(F)O5)(CC2)[C@@H](O)C3)cc1F` [Compound 766, 2-[(2,2-difluoro-2H-1,3-benzodioxol-5-yl)oxy]-N-[(2S)-4-{2-[3-fluoro-4-(methanesulfonyl)phenoxy]acetamido}-2-hydroxybicyclo[2.2.2]octan-1-yl]acetamide], with 50 to 250 nM; and `Cc1ccc(OCC(=O)NC23CCC(NC(=O)COc4ccc(F)c(F)c4)(CC2)[C@@H](O)C3)cc1` [Compound 788, 2-(3,4-difluorophenoxy)-N-{(2S)-2-hydroxy-4-[2-(4-methylphenoxy)acetamido]bicyclo[2.2.2]octan-1-yl}acetamide], with below 10 nM. Turning to `O=C(COc1ccc(OC(F)(F)F)cc1)NC12CCC(NC(=O)COc3ccc(F)cc3)(CC1)[C@@H](O)C2` [Compound 781, 2-(4-fluorophenoxy)-N-[(2S)-2-hydroxy-4-{2-[4-(trifluoromethoxy)phenoxy]acetamido}bicyclo[2.2.2]octan-1-yl]acetamide], the EC50 was below 10 nM.

As for `O=C(COc1ccc(Cl)c(F)c1)NC12CCC(NC(=O)COc3cc(F)c(Cl)cc3Br)(CC1)C(Br)C2=O` (stereo not drawn) [Compound 570, 2-(2-bromo-4-chloro-5-fluorophenoxy)-N-{2-bromo-4-[2-(4-chloro-3-fluorophenoxy)acetamido]-3-oxobicyclo[2.2.2]octan-1-yl}acetamide], the EC50 was 50 to 250 nM. In the case of `Cc1ccc(OCC(=O)NC23CCC(NC(=O)COc4ccc(Cl)c(F)c4)(CC2)C[C@@H]3O)cc1` [Compound 521, 2-(4-chloro-3-fluorophenoxy)-N-{(3S)-3-hydroxy-4-[2-(4-methylphenoxy)acetamido]bicyclo[2.2.2]octan-1-yl}acetamide], the concentration giving a half-maximal response (EC50) was below 10 nM. Then `CC(C)(C)c1ccc(OCC(=O)NC23CC(NC(=O)COc4ccc(Cl)c(F)c4)(C2)C3)cn1` [Compound 221, 2-[(6-tert-butylpyridin-3-yl)oxy]-N-{3-[2-(4-chloro-3-fluorophenoxy)acetamido]bicyclo[1.1.1]pentan-1-yl}acetamide], with 500 to 2000 nM; and `O=C(COc1ccc(S(F)(F)(F)(F)F)cc1)NC12CCC(NC(=O)COc3ccc(Cl)c(F)c3)(CC1)[C@@H](O)C2` [Compound 839, 2-(4-chloro-3-fluorophenoxy)-N-[(2S)-2-hydroxy-4-{2-[4-(pentafluoro-lambda^6-sulfanyl)phenoxy]acetamido}bicyclo[2.2.2]octan-1-yl]acetamide], with below 10 nM.
